Results taken from patent US8178534B2, “cMET inhibitors” (Takeda Pharmaceutical Company Limited, priority 2008, dated 2012).
Structures can show the parent of a compound that is named as a salt.

Columns and labels:
[1] = molecular target: T1, cMET enzyme (amino acids 1023-1360) (Homo sapiens, UniProt P08581); assay: Determination of inhibition of cMET (capillary electrophoresis, phosphorylated peptide product); type: biochemical; conditions: 1.2 nM cMET, 50 μM ATP, 2 μM FL-2 peptide, 2 hours room temperature
T1 construct: The cMET enzyme (amino acids 1023-1360) nominally at 24 μM was held at −80° C. until use; His tag (N, cleaved yes); made in house; host or cells: Sf9 cells
T1 sequence (P08581 1023-1360): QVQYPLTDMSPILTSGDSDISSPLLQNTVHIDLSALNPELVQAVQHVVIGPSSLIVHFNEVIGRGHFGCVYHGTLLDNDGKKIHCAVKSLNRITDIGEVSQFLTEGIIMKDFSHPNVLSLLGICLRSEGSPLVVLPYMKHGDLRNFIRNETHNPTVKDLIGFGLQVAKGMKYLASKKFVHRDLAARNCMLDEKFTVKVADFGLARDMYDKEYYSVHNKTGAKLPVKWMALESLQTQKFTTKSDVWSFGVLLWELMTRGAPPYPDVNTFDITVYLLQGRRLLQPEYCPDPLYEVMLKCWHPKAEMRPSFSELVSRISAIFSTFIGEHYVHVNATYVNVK
Description: The inhibitory property of a compound relative to cMET catalysis was determined by use of capillary electrophoresis with fluorescence quantification of a phosphorylated peptide product for cMET. The cMET enzyme (amino acids 1023-1360) nominally at 24 μM was held at −80° C. until use, in a buffer containing 25 mM Tris-HCl pH 8.5, 150 mM NaCl, 3 mM DTT and 10% glycerol. […] Following purification, the tag was removed and enzyme concentrated. […] To activate the enzyme fully, frozen cMET was thawed quickly and activated with the addition of assay buffer (50 mM HEPES pH 7.5, 10 mM NaCl, 10 mM MgCl2, 0.01% Brij® 35), 1.25 mM ATP, 5 mM MgCl2 and 5 mM DTT at a cMET concentration of 2.4 μM followed by a 30 minute incubation at room temperature. […] Next, cMET enzyme (1.2 nM final) was added and the system incubated at room temperature for 20 minutes. Catalysis was initiated by the addition of ATP (50 μM final). Assays were incubated at room temperature for 2 hours then quenched by the addition of EDTA. Phosphorylated peptide product was quantified by monitoring fluorescence during capillary electrophoresis with Caliper LifeSciences LabChip 3000 under the following settings: base pressure=−0.1 psi, screen pressure=−1.2 psi, downstream voltage=−500 V, upstream voltage=−2300 V, chip type=TC372. The elution buffer was identical to the assay buffer except for the absence of DTT, FL-2 and ATP and the addition of 0.1% coating reagent (Caliper). […] Peak height was quantified and used to determine enzyme velocities.
IC50 values were calculated by non-linear least squares curve fitting of the standard IC50 equation to background-corrected cMET velocity versus compound concentration.

[2] = system: A549; assay: Inhibition of cell viability (MTS), A549 (negative control line); type: cell-based; conditions: A549 cells (negative control), 96 hours incubation
Description: (§1) Cells were maintained at 37° C. in a humidified atmosphere containing 5%-8% CO2 following the instructions of the supplier (American Type Culture Collection (Rockville, Md.)). Inhibition of cell viability was determined for a panel of tumor cell lines (MKN45, EBC1 and A549), using the soluble tetrazolium salt, MTS (Promega, Madison, Wis.). Cells were seeded at 2,000-7,500 cells/well in 96-well tissue culture plates and were allowed to attach for approximately 24 hours prior to addition of compounds or DMSO vehicle. […] Cells were treated in duplicate with test compounds. Compounds were serially diluted (1:2.5) from column 1 to 11 and column 12 contained DMSO vehicle. Compounds were diluted into cell growth medium then compound solution was added to cells. Equal amounts of DMSO were added to cells (final concentration is 0.5%). After background correction and normalization against DMSO-treated cells, EC50 values were calculated using non-linear curve-fitting of the cell viability as a function of compound concentration. The MKN45 and EBC1 cell lines contain high levels of phospho-Met and are dependent on cMET for proliferation, whereas the A549 line is used as negative control.
(§2) EC50 values may be calculated by non-linear curve fitting of the compound concentrations and fluorescence intensities to the standard EC50 equation.

[3] = system: MKN45; assay: Inhibition of cell viability (MTS), MKN45; type: cell-based; conditions: 96 hours incubation
Description: as §1, §2

[4] = system: EBC1; assay: Inhibition of cell viability (MTS), EBC1; type: cell-based; conditions: 96 hours incubation
Description: as §1, §2

[5] = Homo sapiens, MKN-45, 96 h, MKN45 cells
[6] = Homo sapiens, EBC-1, 96 h, EBC1 cells
[7] = Homo sapiens, MKN-45, MKN45 cells
[8] = Homo sapiens, EBC-1, EBC1 cells

SMILES	IC50 [1] [nM]	EC50 [2] [nM]	EC50 ([3]; MKN45 cells) [nM]	EC50 ([4]; EBC1 cells) [nM]	EC50 ([2]; Homo sapiens, A549, 96 h) [nM]	EC50 [3, 5] [nM]	EC50 [4, 6] [nM]	EC50 ([2]; Homo sapiens) [nM]	EC50 [3, 7] [nM]	EC50 [4, 8] [nM]
O=C(Nc1cn2nc(Sc3nnc4ccccn34)ccc2n1)C1CC1 [3 (TFA Salt), N-(6-([1,2,4]triazolo[4,3-a]pyridin-3-ylthio)imidazo[1,2-b]pyridazin-2-yl)cyclopropanecarboxamide]	> 100	8000 to 25000	250 to 630	100 to 199						
O=C(Nc1cn2nc(Cn3nnc4ccc(-c5cnn(C[C@H](O)CO)c5)cc43)ccc2n1)C1CC1 [Compound 22]	60 to 100				> 50000	> 630	> 200			
COc1cncc(-c2ccc3nnn(Cc4ccc5nc(NC(=O)C6CC6)cn5n4)c3c2)c1 [Compound 19]	60 to 100				> 19500	250 to 630	100 to 199			
O=C(Nc1cn2nc(C(F)(F)c3nnc4ccc(-c5cc(F)cc(F)c5)cn34)ccc2n1)C1CC1 [Compound 81, N-(6-((6-(3,5-difluorophenyl)-[1,2,4]triazolo[4,3-a]pyridin-3-yl)difluoromethyl)imidazo[1,2-b]pyridazin-2-yl)cyclopropanecarboxamide]	< 30				> 50000	< 30	< 30			
CC(c1ccc2nc(NC(=O)C3CC3)cn2n1)c1nnc2ccc(-c3ccc(F)c(C#N)c3)cn12 (centres unmarked) [Compound 71, N-(6-(1-(6-(3-cyano-4-fluorophenyl)-[1,2,4]triazolo[4,3-a]pyridin-3-yl)ethyl)imidazo[1,2-b]pyridazin-2-yl)cyclopropanecarboxamide]	< 30				> 50000	< 30	< 30			
COCCn1cc(-c2ccc3nnc(Sc4ccc5nc(NC(=O)C6CC6)cn5n4)n3c2)cn1 [Compound 31, N-(6-(6-(1-(2-methoxyethyl)-1H-pyrazol-4-yl)-[1,2,4]triazolo[4,3-a]pyridin-3-ylthio)imidazo[1,2-b]pyridazin-2-yl)cyclopropanecarboxamide]	30 to 59				> 50000	< 100	< 35			
Cc1csc(-c2ccc3nnc(C(F)(F)c4ccc5nc(NC(=O)C6CC6)cn5n4)n3c2)c1 [Compound 84, N-(6-(difluoro(6-(4-methylthiophen-2-yl)-[1,2,4]triazolo[4,3-a]pyridin-3-yl)methyl)imidazo[1,2-b]pyridazin-2-yl)cyclopropanecarboxamide]	< 30				> 50000	< 30	< 30			
Cc1n[nH]c(C)c1-c1ccc2nnn(Cc3ccc4nc(NC(=O)C5CC5)cn4n3)c2c1 [Compound 20]	60 to 100				> 50000	250 to 630	> 200			
CC(C)CNC(=O)c1ccc2nnc(Sc3ccc4nc(NC(=O)C5CC5)cn4n3)n2c1 [Compound 35, 3-(2-(cyclopropanecarboxamido)imidazo[1,2-b]pyridazin-6-ylthio)-N-isobutyl-[1,2,4]triazolo[4,3-a]pyridine-6-carboxamide]	> 100				> 19500	> 630	100 to 199			
CN(C)c1cccc(-c2ccc3nnc(C(F)(F)c4ccc5nc(NC(=O)C6CC6)cn5n4)n3c2)c1 [Compound 96, N-(6-((6-(3-(dimethylamino)phenyl)-[1,2,4]triazolo[4,3-a]pyridin-3-yl)difluoromethyl)imidazo[1,2-b]pyridazin-2-yl)cyclopropanecarboxamide]	< 30				8000 to 25000	< 30	< 30			
O=C(Nc1cn2nc(C(F)(F)c3nnc4ccc(-c5cnn(CCO)c5)cn34)ccc2n1)C1CC1 [Compound 47, N-(6-(difluoro(6-(1-(2-hydroxyethyl)-1H-pyrazol-4-yl)-[1,2,4]triazolo[4,3-a]pyridin-3-yl)methyl)imidazo[1,2-b]pyridazin-2-yl)cyclopropanecarboxamide]	< 30				> 50000	< 30	< 30			
CC(c1ccc2nc(NC(=O)C3CC3)cn2n1)c1nnc2ccc(-c3cccc(C(N)=O)c3)cn12 (centres unmarked) [Compound 66, 3-(3-(1-(2-(cyclopropanecarboxamido)imidazo[1,2-b]pyridazin-6-yl)ethyl)-[1,2,4]triazolo[4,3-a]pyridin-6-yl)benzamide]	< 30				> 50000	100 to 249	100 to 249			
N#Cc1ccc2nnc(Sc3ccc4nc(NC(=O)C5CC5)cn4n3)n2c1 [Compound 6, N-(6-(6-cyano-[1,2,4]triazolo[4,3-a]pyridin-3-ylthio)imidazo[1,2-b]pyridazin-2-yl)cyclopropanecarboxamide]	> 100							> 50000	> 630	> 200
O=C(Nc1cn2nc(Sc3nnc4ccc(-c5cccc(CCCO)c5)cn34)ccc2n1)C1CC1 [Compound 111, N-(6-(6-(3-(3-hydroxypropyl)phenyl)-[1,2,4]triazolo[4,3-a]pyridin-3-ylthio)imidazo[1,2-b]pyridazin-2-yl)cyclopropanecarboxamide]	< 30				8000 to 25000	100 to 249	30 to 59			
O=C(Nc1cn2nc(Cn3nnc4ccc(-c5cnn(C[C@@H](O)CO)c5)cc43)ccc2n1)C1CC1 [Compound 23]	30 to 59				> 50000	250 to 630	100 to 199			
O=C(O)c1ccc2nnc(Sc3ccc4nc(NC(=O)C5CC5)cn4n3)n2c1 [Compound 33, 3-(2-(cyclopropanecarboxamido)imidazo[1,2-b]pyridazin-6-ylthio)-[1,2,4]triazolo[4,3-a]pyridine-6-carboxylic acid]	> 100							> 50000	> 630	> 200
Cc1ccc2nnc(C(C)c3ccc4nc(NC(=O)C5CC5)cn4n3)n2c1 (centres unmarked) [Compound 53, N-(6-(1-(6-methyl-[1,2,4]triazolo[4,3-a]pyridin-3-yl)ethyl)imidazo[1,2-b]pyridazin-2-yl)cyclopropanecarboxamide]	250 to 630				> 50000	250 to 630	250 to 630			
Cn1cc(-c2ccc3nnc(C(F)(F)c4ccc5nc(NC(=O)C6CC6)cn5n4)n3c2)cn1 [45 (HCl Salt), N-(6-(Difluoro(6-(1-methyl-1H-pyrazol-4-yl)-[1,2,4]triazolo[4,3-a]pyridin-3-yl)methyl)imidazo[1,2-b]pyridazin-2-yl)cyclopropanecarboxamide hydrochloride]	< 30				> 50000	< 30	< 30			
CC(c1ccc2nc(NC(=O)C3CC3)cn2n1)c1nnc2ccc(-c3cnn(C)c3)cn12 (centres unmarked) [49 (TFA Salt), N-(6-(1-(6-(1-methyl-1H-pyrazol-4-yl)-[1,2,4]triazolo[4,3-a]pyridin-3-yl)ethyl)imidazo[1,2-b]pyridazin-2-yl)cyclopropanecarboxamide]	30 to 59	> 50000	60 to 100	60 to 100						
CNC(=O)c1ccc(-c2ccc3nnc(C(C)c4ccc5nc(NC(=O)C6CC6)cn5n4)n3c2)cc1F (centres unmarked) [Compound 58, 4-(3-(1-(2-(cyclopropanecarboxamido)imidazo[1,2-b]pyridazin-6-yl)ethyl)-[1,2,4]triazolo[4,3-a]pyridin-6-yl)-2-fluoro-N-methylbenzamide]	< 30				> 50000	< 30	< 30			
